Assay results reported in PubChem BioAssay AID2060903 (Molecular Pharmacology Branch, DTP, NCI, 2025).

Tested on: 377384-186-R-J1-PDC complex spheroid viability
Experiment: Anticancer human tumor 377384-186-R-J1-PDC patient-derived pancreatic carcinoma cell line growth inhibition [RAS]
Conditions: for viability, T/C: stronger effect = lower value
Summary of the method: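 Agents were tested in combination matrices in half-log decrements from a top concentration at or near clinical Cmax (10 microM if undetermined). Targets were multi-cell spheroids of tumour lines plus HUVEC and MSC stromal cells.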

[1] = curve of first compound, second compound 0.0316 µM
[2] = curve of first compound, second compound 0.1 µM
[3] = curve of first compound, second compound 0.316 µM
[4] = curve of first compound, second compound 1 µM
[5] = curve of first compound, second compound 3.16 µM
[6] = curve of first compound, second compound 10 µM
[7] = second compound 0.0316 µM, first compound 0.0316 µM
[8] = second compound 0.0316 µM, first compound 0.1 µM
[9] = second compound 0.0316 µM, first compound 0.316 µM
[10] = second compound 0.0316 µM, first compound 1 µM
[11] = second compound 0.1 µM, first compound 0.0316 µM
[12] = second compound 0.1 µM, first compound 0.1 µM
[13] = second compound 0.1 µM, first compound 0.316 µM
[14] = second compound 0.1 µM, first compound 1 µM
[15] = second compound 0.316 µM, first compound 0.0316 µM
[16] = second compound 0.316 µM, first compound 0.1 µM
[17] = second compound 0.316 µM, first compound 0.316 µM
[18] = second compound 0.316 µM, first compound 1 µM
[19] = second compound 1 µM, first compound 0.0316 µM
[20] = second compound 1 µM, first compound 0.1 µM
[21] = second compound 1 µM, first compound 0.316 µM
[22] = second compound 1 µM, first compound 1 µM
[23] = second compound 3.16 µM, first compound 0.0316 µM
[24] = second compound 3.16 µM, first compound 0.1 µM
[25] = second compound 3.16 µM, first compound 0.316 µM
[26] = second compound 3.16 µM, first compound 1 µM
[27] = second compound 10 µM, first compound 0.0316 µM
[28] = second compound 10 µM, first compound 0.1 µM
[29] = second compound 10 µM, first compound 0.316 µM
[30] = second compound 10 µM, first compound 1 µM
[31] = second compound 0.0316 µM, first compound 3.16 µM
[32] = second compound 0.0316 µM, first compound 10 µM
[33] = second compound 0.1 µM, first compound 3.16 µM
[34] = second compound 0.1 µM, first compound 10 µM
[35] = second compound 0.316 µM, first compound 3.16 µM
[36] = second compound 0.316 µM, first compound 10 µM
[37] = second compound 1 µM, first compound 3.16 µM
[38] = second compound 1 µM, first compound 10 µM
[39] = second compound 3.16 µM, first compound 3.16 µM
[40] = second compound 3.16 µM, first compound 10 µM
[41] = second compound 10 µM, first compound 3.16 µM
[42] = second compound 10 µM, first compound 10 µM
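Further: spheroids exposed to compounds for seven days before readout.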

## CCN1CCN(Cc2ccc(Nc3ncc(F)c(-c4cc(F)c5nc(C)n(C(C)C)c5c4)n3)nc2)CC1 + C#Cc1c(F)ccc2cc(O)cc(-c3ncc4c(N5CC6CCC(C5)N6)nc(OCC56CCCN5CC(F)C6)nc4c3F)c12
[1]
  IC50: < 3.16 nM
[2]
  IC50: < 3.16 nM
[3]
  IC50: < 3.16 nM
[4]
  IC50: < 3.16 nM
[5]
  IC50: < 3.16 nM
[6]
  IC50: < 3.16 nM
Second compound 0.0316 µM, first compound 0.00316 µM
  viability, T/C: 21%
Second compound 0.0316 µM, first compound 0.01 µM
  viability, T/C: 18.9%
[7]
  viability, T/C: 11.8%
[8]
  viability, T/C: 11.6%
[9]
  viability, T/C: 5.8%
[10]
  viability, T/C: 4.39%
Second compound 0.1 µM, first compound 0.00316 µM
  viability, T/C: 9.77%
Second compound 0.1 µM, first compound 0.01 µM
  viability, T/C: 9.8%
[11]
  viability, T/C: 8.49%
[12]
  viability, T/C: 4.76%
[13]
  viability, T/C: 3.64%
[14]
  viability, T/C: 2.94%
Second compound 0.316 µM, first compound 0.00316 µM
  viability, T/C: 3.83%
Second compound 0.316 µM, first compound 0.01 µM
  viability, T/C: 3.75%
[15]
  viability, T/C: 3.3%
[16]
  viability, T/C: 2.21%
[17]
  viability, T/C: 2.67%
[18]
  viability, T/C: 2.17%
Second compound 1 µM, first compound 0.00316 µM
  viability, T/C: 2.87%
Second compound 1 µM, first compound 0.01 µM
  viability, T/C: 2.26%
[19]
  viability, T/C: 2.11%
[20]
  viability, T/C: 1.55%
[21]
  viability, T/C: 2.1%
[22]
  viability, T/C: 2.53%
Second compound 3.16 µM, first compound 0.00316 µM
  viability, T/C: 1.72%
Second compound 3.16 µM, first compound 0.01 µM
  viability, T/C: 1.78%
[23]
  viability, T/C: 1.26%
[24]
  viability, T/C: 1.41%
[25]
  viability, T/C: 1.98%
[26]
  viability, T/C: 1.76%
Second compound 10 µM, first compound 0.00316 µM
  viability, T/C: 1.13%
Second compound 10 µM, first compound 0.01 µM
  viability, T/C: 1.55%
[27]
  viability, T/C: 0.87%
[28]
  viability, T/C: 0.72%
[29]
  viability, T/C: 0.67%
[30]
  viability, T/C: 0.32%

## CC1(O)CCCC1n1c(=O)c(C(F)F)cc2cnc(NC3CCN(S(C)(=O)=O)CC3)nc21 (stereo unspecified) + C#Cc1c(F)ccc2cc(O)cc(-c3ncc4c(N5CC6CCC(C5)N6)nc(OCC56CCCN5CC(F)C6)nc4c3F)c12
[1]
  IC50: < 31.6 nM
[2]
  IC50: < 31.6 nM
[3]
  IC50: < 31.6 nM
[4]
  IC50: < 31.6 nM
[5]
  IC50: < 31.6 nM
[6]
  IC50: < 31.6 nM
[7]
  viability, T/C: 15.5%
[8]
  viability, T/C: 12.7%
[9]
  viability, T/C: 10%
[10]
  viability, T/C: 11.7%
[31]
  viability, T/C: 16%
[32]
  viability, T/C: 5.41%
[11]
  viability, T/C: 8.93%
[12]
  viability, T/C: 6.57%
[13]
  viability, T/C: 6.54%
[14]
  viability, T/C: 7.97%
[33]
  viability, T/C: 9.01%
[34]
  viability, T/C: 4.92%
[15]
  viability, T/C: 5.04%
[16]
  viability, T/C: 3.52%
[17]
  viability, T/C: 3.71%
[18]
  viability, T/C: 4.22%
[35]
  viability, T/C: 6.59%
[36]
  viability, T/C: 5.41%
[19]
  viability, T/C: 2.55%
[20]
  viability, T/C: 2.39%
[21]
  viability, T/C: 2.88%
[22]
  viability, T/C: 3.55%
[37]
  viability, T/C: 4.3%
[38]
  viability, T/C: 5.91%
[23]
  viability, T/C: 2%
[24]
  viability, T/C: 2.27%
[25]
  viability, T/C: 3.01%
[26]
  viability, T/C: 3.27%
[39]
  viability, T/C: 3.34%
[40]
  viability, T/C: 6.51%
[27]
  viability, T/C: 1.76%
[28]
  viability, T/C: 1.46%
[29]
  viability, T/C: 1.91%
[30]
  viability, T/C: 2%
[41]
  viability, T/C: 1.28%
[42]
  viability, T/C: 2.73%

## C=CC(=O)N1CCN(c2nc(OCC3CCCN3C)nc3c(F)c(-c4nc(N)cc(C)c4C(F)(F)F)c(Cl)cc23)C(C)C1 (stereo unspecified)
Compound 0.00316 µM
  viability, T/C: 96.1% [middle of 12 runs]
Compound 0.0316 µM
  viability, T/C: 95.5% [middle of 12 runs]
Compound 1 µM
  viability, T/C: 96.5% [middle of 12 runs]
Compound alone, run of 09/09/2024
  IC50: > 1000 nM
Curve of compound
  IC50: > 1000 nM

## CC(Nc1ccc2c(c1)OCCn1cc(N3C(=O)OCC3C(F)F)nc1-2)C(N)=O (stereo unspecified) + C#Cc1c(F)ccc2cc(O)cc(-c3ncc4c(N5CC6CCC(C5)N6)nc(OCC56CCCN5CC(F)C6)nc4c3F)c12
[1]
  IC50: < 31.6 nM
[2]
  IC50: < 31.6 nM
[3]
  IC50: < 31.6 nM
[4]
  IC50: < 31.6 nM
[5]
  IC50: < 31.6 nM
[6]
  IC50: < 31.6 nM
[7]
  viability, T/C: 15.8%
[8]
  viability, T/C: 14.3%
[9]
  viability, T/C: 7.76%
[10]
  viability, T/C: 6.8%
[31]
  viability, T/C: 5.84%
[32]
  viability, T/C: 4.21%
[11]
  viability, T/C: 6.67%
[12]
  viability, T/C: 6.43%
[13]
  viability, T/C: 3.06%
[14]
  viability, T/C: 2.11%
[33]
  viability, T/C: 1.21%
[34]
  viability, T/C: 0.7%
[15]
  viability, T/C: 3.3%
[16]
  viability, T/C: 2.54%
[17]
  viability, T/C: 1.59%
[18]
  viability, T/C: 0.81%
[35]
  viability, T/C: 0.63%
[36]
  viability, T/C: 0.43%
[19]
  viability, T/C: 2.75%
[20]
  viability, T/C: 1.42%
[21]
  viability, T/C: 0.85%
[22]
  viability, T/C: 0.69%
[37]
  viability, T/C: 0.44%
[38]
  viability, T/C: 0.27%
[23]
  viability, T/C: 1.42%
[24]
  viability, T/C: 0.91%
[25]
  viability, T/C: 0.56%
[26]
  viability, T/C: 0.32%
[39]
  viability, T/C: 0.39%
[40]
  viability, T/C: 0.32%
[27]
  viability, T/C: 0.95%
[28]
  viability, T/C: 0.23%
[29]
  viability, T/C: 0.14%
[30]
  viability, T/C: 0.17%
[41]
  viability, T/C: 0.45%
[42]
  viability, T/C: 0.11%
